The values that follow come from patent publication US10174038B2, “Compounds and methods for antiviral treatment” (Gilead Sciences, Inc., priority 2012, dated 2019).

The assay has as its system RSV strain A2. As to the kind of experiment: RSV antiviral activity, in vitro cytoprotection assay in Hep2 cells. In kind it is cell-based, Respiratory Syncytial Virus (RSV). As to conditions: human respiratory syncytial virus, HEp-2; 0.5 μM compound; RSV-induced cytopathic effect in Hep2 cells; % inhibition calculated from fitted 4-parameter dose response curve, normalized to 0% and 100%; read-out: Percent inhibition at 0.5 μM. As to the method: Antiviral activity against RSV was determined using an in vitro cytoprotection assay in Hep2 cells. […] The method used was similar to methods previously described in published literature (Chapman et al., Antimicrob Agents Chemother. 2007, 51(9):3346-53.)
Hep2 cells were obtained from ATCC (Manassas, Va.) and maintained in MEM media supplemented with 10% fetal bovine serum and penicillin/streptomycin. Cells were passaged twice a week and kept at subconfluent stage. Commercial stock of RSV strain A2 (Advanced Biotechnologies, Columbia, Md.) was titered before compound testing to determine the appropriate dilution of the virus stock that generated desirable cytopathic effect in Hep2 cells.
For antiviral tests, Hep2 cells were seeded into 96-well plates 24 hours before the assay at a density of 3,000 cells/well. On a separate 96 well plate, compounds to be tested were serially diluted in cell culture media. Eight concentrations in 3-fold serial dilution increments were prepared for each tested compound and 100 uL/well of each dilution was transferred in duplicate onto plates with seeded Hep2 cells. Subsequently, appropriate dilution of virus stock previously determined by titration was prepared in cell culture media and 100 uL/well was added to test plates containing cells and serially diluted compounds. Each plate included three wells of infected untreated cells and three wells of uninfected cells that served as 0% and 100% virus inhibition control, respectively. Following the infection with RSV, testing plates were incubated for 4 days in a tissue culture incubator. After the incubation, RSV-induced cytopathic effect was determined using a Cell TiterGlo reagent (Promega, Madison, Wis.) followed by a luminescence read-out. The percentage inhibition was calculated for each tested concentration relative to the 0% and 100% inhibition controls and the EC50 value for each compound was determined by non-linear regression as a concentration inhibiting the RSV-induced cytopathic effect by 50%. Ribavirin (purchased from Sigma, St. Louis, Mo.) was used as a positive control for antiviral activity.
Compounds were also tested for antiviral activity against RSV in Hep2 cells using a 384 well format. Compounds were diluted in DMSO using a 10-step serial dilution in 3-fold increments via automation in 4 adjacent replicates each. Eight compounds were tested per dilution plate. 0.4 uL of diluted compounds were then stamped via Biomek into 384-well plates (Nunc 142761 or 164730 w/lid 264616) containing 20 μL of media (Mediatech Inc. MEM supplemented with Glutamine, 10% FBS and Pen/Strep). DMSO and a suitable positive control compound, such as 80 μM GS-329467 or 10 μM 427346 was used for the 100% and 0% cell killing controls, respectively.
Hep2 cells (1.0×10^5 cells/ml) were prepared as above in batch to at least 40 mls excess of the number of sample plates (8 mls cell mix per plate) and infected with vendor supplied (ABI) RSV strain A2 to arrive at an MOI of 1:1000 (virus:cell #) or 1:3000 (vol virus:cell vol). Immediately after addition of virus, the RSV infected Hep2 cell suspension was added to each stamped 384-well plate at 20 μl per well using a uFlow dispenser, giving a final volume of 40 μL/well, each with 2000 infected cells. The plates were then incubated for 5 days at 37° C. and 5% CO2. Following incubation, the plates were equilibrated to room temperature in a biosafety cabinet hood for 1.5 hrs and 40 μL of Cell-Titer Glo viability reagent (Promega) was added to each well via uFlow. Following a 10-20 minute incubation, the plates were read using an EnVision or Victor Luminescence plate reader (Perkin-Elmer). The data was then uploaded and analyzed on the Bioinformatics portal under the RSV Cell Infectivity and 8-plate EC50-Hep2-384 or 8-plate EC50-Hep2-Envision protocols. […]

In general, inhibition refers to the share of the control response that was lost under treatment. Take `Cc1cc(N2CC[C@H](N)C2)nc2cc([C@@H]3CCCCN3C(=O)c3cc(Cl)ccc3NS(C)(=O)=O)nn12` [Compound 44]: the inhibition at 0.5 µM was 100%.
For `Cc1cc(C2CC2)nc2cc([C@@H]3CCCCN3C(=O)c3cc(F)cc(Cl)c3NS(C)(=O)=O)nn12` [Compound 74] the value was 97%.
Turning to `Cc1cc2nc([C@@H]3CCCCN3C(=O)c3cc(Cl)ccc3NS(C)(=O)=O)cn2nc1N1CC[C@H](N)C1` [Compound 107], the inhibition at 0.5 µM is 100%.
On to `Cc1cn2nc([C@@H]3CCCCN3C(=O)c3cc(Cl)ccc3NC(=O)OCC(F)(F)F)cc2nc1N1CC[C@H](N)C1` [Compound 63], for which the inhibition at 0.5 µM is 100%.
For `CS(=O)(=O)Nc1ccc(Cl)cc1C(=O)N1CCCC[C@H]1c1cc2nc(C3CC3)ccn2n1` [Compound 85] the value was 86%.
For `Cc1cc(C)nc(C(=O)N2CCCC[C@H]2c2cc3nc(N4CC[C@H](N)C4)c(C)cn3n2)c1` [Compound 66] the value was 100%; for `Cc1cc(C2CC2)nc2cc([C@@H]3CCCCN3C(=O)c3cc(Cl)c(F)cc3NS(C)(=O)=O)nn12` [Compound 30], 91%; for `Cc1cn2nc([C@@H]3CCCCN3C(=O)c3cc(Cl)ccc3NS(C)(=O)=O)cc2nc1N1CCC1C` (stereo partly drawn) [Compound 40], 100%.
Consider `CC(=O)Nc1ccc(C)cc1C(=O)N1CCCC[C@H]1c1cc2nc(N3CC(NC(=O)OC(C)(C)C)C3)c(C)cn2n1` [Compound 87], for which the inhibition at 0.5 µM is 89%.
With `CC(=O)Nc1ccc(C)c(Br)c1C(=O)N1CCCC[C@H]1c1cc2nc(C)c(C)c(C)n2n1` [Compound 83], the inhibition at 0.5 µM is 100%.
For `Cc1cn2nc([C@@H]3CCCCN3C(=O)c3cc(Cl)ccc3NS(=O)(=O)N(C)C)cc2nc1N1CC[C@H](N)C1` [Compound 61] the value was 100%.
As for `Cc1ccc(NS(C)(=O)=O)c(C(=O)N2CCCC[C@H]2c2cc3cc(C)cc(C)n3n2)c1` [Compound 105], the inhibition at 0.5 µM is 96%.
Take `CS(=O)(=O)Nc1ccc(Cl)cc1C(=O)N1CCCC[C@H]1c1cc2nc(N3CCC3)cc(N3CCCC(N)C3)n2n1` (stereo partly drawn) [Compound 70]: the inhibition at 0.5 µM was 100%.
Turning to `CN(C)[C@@H]1CCN(c2cc(N3CCC3)nc3cc([C@@H]4CCCCN4C(=O)c4cc(Cl)ccc4NS(C)(=O)=O)nn23)C1` [Compound 72], the inhibition at 0.5 µM was 100%.
For `Cc1nc2cc([C@@H]3CCCCN3C(=O)c3cc(Cl)ccc3NS(C)(=O)=O)nn2c(N2CCC2)c1C` [Compound 78] the value was 99%; for `CC1CN(c2cc(N3CCOCC3)n3nc([C@@H]4CCCCN4C(=O)c4cc(Cl)ccc4NS(C)(=O)=O)cc3n2)C1` [Compound 1], 95%.
Consider `Cc1cn2nc([C@@H]3CCCCN3C(=O)c3cc(Cl)ccc3NC(=O)N(C)C)cc2nc1N1CC[C@H](N)C1` [Compound 64], for which the inhibition at 0.5 µM was 100%.
On to `Cc1cn2nc([C@@H]3CCCCN3C(=O)c3ccccc3OC(F)(F)F)cc2nc1N1CC[C@H](N)C1` [Compound 9], for which the inhibition at 0.5 µM is 100%.
Turning to `Cc1cc(C)n2cc([C@@H]3CCCCN3C(=O)c3cc(Cl)ccc3NS(C)(=O)=O)nc2c1` [Compound 104], the inhibition at 0.5 µM was 3%.
For `CC(C)OC(=O)Nc1ccc(Cl)cc1C(=O)N1CCCC[C@H]1c1cc2nc(N3CCC3)cc(N3CCNCC3)n2n1` [Compound 69] the value was 99%.
For `Cc1cnc(N)c(C(=O)N2CCCC[C@H]2c2cc3nc(N4CC[C@H](N)C4)c(C)cn3n2)c1` [Compound 14] the value was 97%.
For `CS(=O)(=O)Nc1ccc(Cl)cc1C(=O)N1CCCC[C@H]1c1cn2nc(N3CC(O)C3)ccc2n1` [Compound 120] the value was 100%; for `Cc1cccc(C(=O)N2CCCC[C@H]2c2cn3nc(N4CC[C@H](N)C4)ccc3n2)n1` [Compound 119], 83%.
For the molecule `Cc1nc2cc([C@@H]3CCCCN3C(=O)c3cc(F)cc(Cl)c3NS(C)(=O)=O)nn2c(C)c1C` [Compound 32], the inhibition at 0.5 µM was 85%.
